In ChEMBL document CHEMBL1156643, “Kempopeptins A and B, serine protease inhibitors with different selectivity profiles from a marine cyanobacterium, Lyngbya sp” (J Nat Prod, 2008):

Columns and labels:
[1] = Inhibition of bovine alpha chymotrypsin; design: species or system Bos taurus
Pancreatic elastase = Pancreatic elastase (Sus scrofa, UniProt P08419+P00772); experiment: Inhibition of pig pancreatic elastase; assay type: protein assay
[2] = Inhibition of pig pancreatic trypsin; design: species or system Sus scrofa

Row | SMILES | IC50 [1] | IC50 (Pancreatic elastase) | IC50 [2]
1 | CC(=O)N1CCC[C@H]1C(=O)N[C@H](C(=O)N[C@@H]1C(=O)N[C@@H](CC(C)C)C(=O)N[C@H]2CC[C@@H](O)N(C2=O)[C@@H](Cc2ccccc2)C(=O)N(C)[C@@H](Cc2ccc(O)cc2)C(=O)N[C@@H](C(C)C)C(=O)O[C@@H]1C)[C@@H](C)O [KEMPOPEPTIN A] | 0.32 µM | 2.6 µM | > 67 µM
2 | CCCC(=O)N[C@H](C(=O)N[C@@H]1C(=O)N[C@@H](CCCCN)C(=O)N[C@H]2CC[C@@H](O)N(C2=O)[C@@H]([C@@H](C)CC)C(=O)N(C)[C@@H](Cc2ccc(OC)c(Br)c2)C(=O)N[C@@H](C(C)C)C(=O)O[C@@H]1C)C(C)C [KEMPOPEPTIN B] | > 67 µM | > 67 µM | 8.4 µM
3 | C/C=C1\NC(=O)[C@@H](NC(=O)[C@H](CCC(N)=O)NC(=O)CCCCC)[C@@H](C)OC(=O)[C@H](C(C)C)NC(=O)[C@H](Cc2ccc(O)cc2)N(C)C(=O)[C@H](Cc2ccccc2)N2C(=O)[C@H](CC[C@H]2O)NC1=O [LYNGBYASTATIN 7] |  |  | > 30 µM
4 | C/C=C1\NC(=O)[C@@H](NC(=O)[C@H](CCC(N)=O)NC(=O)CCC)[C@@H](C)OC(=O)[C@H](C(C)C)NC(=O)[C@H](Cc2ccc(O)cc2)N(C)C(=O)[C@H](Cc2ccccc2)N2C(=O)[C@H](CC[C@H]2O)NC1=O [SOMAMIDE B] | 0.0095 µM | 4.2 µM | > 30 µM
